The assay has as its target T1, NPR-B (Homo sapiens, UniProt P20594).
T1 construct: a functional assay using endogenously NPR-B expressing GTM-3 cells; endogenous in cells; host or cells: GTM-3 (human glaucoma trabecular meshwork cells)
T1 sequence (P20594 23-1047): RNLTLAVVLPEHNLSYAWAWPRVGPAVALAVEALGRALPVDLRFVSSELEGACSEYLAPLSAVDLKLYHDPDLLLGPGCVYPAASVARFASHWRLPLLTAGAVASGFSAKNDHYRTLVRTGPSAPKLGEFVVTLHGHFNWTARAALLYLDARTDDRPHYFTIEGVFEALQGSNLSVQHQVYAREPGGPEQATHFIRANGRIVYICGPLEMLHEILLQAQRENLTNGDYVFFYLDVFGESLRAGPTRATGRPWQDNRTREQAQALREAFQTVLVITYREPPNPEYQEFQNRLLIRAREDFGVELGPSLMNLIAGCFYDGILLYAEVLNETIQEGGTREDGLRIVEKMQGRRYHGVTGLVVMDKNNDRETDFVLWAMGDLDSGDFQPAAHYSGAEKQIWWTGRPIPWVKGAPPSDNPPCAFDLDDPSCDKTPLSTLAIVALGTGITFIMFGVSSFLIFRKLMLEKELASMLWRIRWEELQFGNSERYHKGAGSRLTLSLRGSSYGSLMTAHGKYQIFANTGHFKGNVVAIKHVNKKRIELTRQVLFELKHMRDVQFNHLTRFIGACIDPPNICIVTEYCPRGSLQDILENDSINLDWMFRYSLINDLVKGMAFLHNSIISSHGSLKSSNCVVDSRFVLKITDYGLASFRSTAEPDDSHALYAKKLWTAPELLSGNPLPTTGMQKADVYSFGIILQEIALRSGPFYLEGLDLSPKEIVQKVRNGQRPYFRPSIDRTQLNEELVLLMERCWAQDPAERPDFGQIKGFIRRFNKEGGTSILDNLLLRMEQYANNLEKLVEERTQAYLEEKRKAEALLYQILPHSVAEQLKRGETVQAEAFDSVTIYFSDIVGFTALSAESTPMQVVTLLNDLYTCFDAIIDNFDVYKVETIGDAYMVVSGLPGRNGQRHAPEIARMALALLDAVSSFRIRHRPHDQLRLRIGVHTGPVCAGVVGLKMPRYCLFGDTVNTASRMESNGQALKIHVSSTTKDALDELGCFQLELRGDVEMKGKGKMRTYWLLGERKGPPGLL
The assay can be described thus: NPR-B induced production of cyclic GMP in human glaucoma trabecular meshwork cells (GTM-3). The assay is classed as cell-based. The conditions noted are these: group by EC50 and Emax (CNP = 100%); Table 4; read-out: Activity (group), NPR-B activation assayed with GTM-3 cells.

SMILES strings stand for the structures. Numbered stars: 1 amine (or outer) side, 2 acyl side, 3 side chain; on linkers, the order of the positions; unused ones are H or OH. Square brackets hold non-standard residues; d marks the D form. Peptide text beside a SMILES is read from it. * marks the point of attachment. X4 = NCCCN[C@@H]1C[C@@H](C(=O)[*:2])N([*:1])C1; X3 = NCCN[C@@H]1C[C@@H](C(=O)[*:2])N([*:1])C1; Pro(4R-NH2) = N[C@H]1CN[C@H](C(=O)O)C1; X2 = O=C([C@H]1CCCN([*:1])C1)[*:2]; X1 = CCCCCCCCN1CCC[C@H](C(=O)*)C1; dDap(Me2) = CN(C)C[C@@H](N)C(=O)O; NMeL = CN[C@@H](CC(C)C)C(=O)O; Octanoyl = CCCCCCCC(=O)*; Api = NC1(C(=O)O)CCNCC1

Take `CCCCCCCC(=O)N[C@H](C)C(=O)N[C@@H](Cc1ccccc1)C(=O)N[C@H](CC(C)C)C(=O)N[C@@H](CC(C)C)C(=O)N1C[C@H](O)C[C@H]1C(=O)N[C@@H](CN(C)C)C(=O)N[C@@H](CC(=O)O)C(=O)N[C@@H](CCCNC(=N)N)C(=O)N[C@H](C(N)=O)[C@@H](C)CC` [JAL-1367, Occ-ala-Phe-leu-Leu-Hyp-Dap(Me2)-Asp-Arg-Ile-NH2] (HELM PEPTIDE1{[CCCCCCCC(=O)[*:2]].[dA].F.[dL].L.[Hyp].[CN(C)C[C@H](N[*:1])C(=O)[*:2]].D.R.I.[am]}$$$$V2.0): the EC50 was below 1000 nM.
The value for `CCCCCCCC(=O)N1CCC[C@H](C(=O)N[C@@H](Cc2ccccc2)C(=O)N[C@H](CC(C)C)C(=O)N[C@@H](CC(C)C)C(=O)N2C[C@H](NCCN)C[C@H]2C(=O)N(C)[C@@H](CC(C)C)C(=O)N[C@@H](CC(=O)O)C(=O)N[C@@H](CCCNC(=N)N)C(=O)N[C@H](C(N)=O)[C@@H](C)CC)C1` [JAL-1371, Occ-Sni-Phe-leu-Leu-Tap(Ae)-Nml-Asp-Arg-Ile-NH2] (Octanoyl-[X2]F[dL]L[X3][NMeL]DRI-NH2) was below 1000 nM; that for `CCCCCCCC(=O)N1CCC[C@H](C(=O)N[C@@H](Cc2ccccc2)C(=O)N[C@H](CC(C)C)C(=O)N[C@@H](CC(C)C)C(=O)N2C[C@H](NCCCN)C[C@H]2C(=O)N(C)[C@@H](CC(C)C)C(=O)N[C@@H](CC(=O)O)C(=O)N[C@@H](CCCNC(=N)N)C(=O)N[C@H](C(N)=O)[C@@H](C)CC)C1` [JAL-1372, Occ-Sni-Phe-leu-Leu-Tap(Ap)-Nml-Asp-Arg-Ile-NH2] (Octanoyl-[X2]F[dL]L[X4][NMeL]DRI-NH2) was below 1000 nM; that for `CCCCc1cnc(Nc2ccc(C(=O)N[C@@H](Cc3ccccc3)C(=O)N[C@H](CC(C)C)C(=O)N[C@@H](CC(C)C)C(=O)N3C[C@H](O)C[C@H]3C(=O)N(C)[C@@H](CC(C)C)C(=O)N[C@@H](CC(=O)O)C(=O)N[C@@H](CCCNC(=N)N)C(=O)N[C@H](C(N)=O)[C@@H](C)CC)cc2)s1` [JAL-1380, (AR-201-68)-Phe-leu-Leu-Hyp-Nml-Asp-Arg-Ile-NH2] (HELM PEPTIDE1{[CCCCc1cnc(Nc2ccc(C(=O)[*:2])cc2)s1].F.[dL].L.[Hyp].[meL].D.R.I.[am]}$$$$V2.0) was below 1000 nM.
The same measure for `CCCCc1cnc(N2CCC[C@H](C(=O)N[C@@H](Cc3ccccc3)C(=O)N[C@H](CC(C)C)C(=O)N[C@@H](CC(C)C)C(=O)N3C[C@H](O)C[C@H]3C(=O)N(C)[C@@H](CC(C)C)C(=O)N[C@@H](CC(=O)O)C(=O)N[C@@H](CCCNC(=N)N)C(=O)N[C@H](C(N)=O)[C@@H](C)CC)C2)s1` [JAL-1382, Sbt-Sni-Phe-leu-Leu-Hyp-Nml-Asp-Arg-Ile-NH2] (HELM PEPTIDE1{[CCCCc1cnc(N2CCC[C@H](C(=O)[*:2])C2)s1].F.[dL].L.[Hyp].[meL].D.R.I.[am]}$$$$V2.0): below 1000 nM; for `CCCCCCCC(=O)N1CCC[C@H](C(=O)N[C@@H](Cc2ccccc2)C(=O)N[C@H](CC(C)C)C(=O)N[C@@H](CC(C)C)C(=O)N2C[C@H](O)C[C@H]2C(=O)N(C)[C@@H](CC(C)C)C(=O)N[C@H](C(=O)N[C@@H](CCCNC(=N)N)C(=O)N[C@H](C(N)=O)[C@@H](C)CC)C(C)C)C1` [JAL-1398, Occ-Sni-Phe-leu-Leu-Hyp-Nml-Val-Arg-Ile-NH2] (HELM PEPTIDE1{[CCCCCCCC(=O)[*:2]].[O=C([C@H]1CCCN([*:1])C1)[*:2]].F.[dL].L.[Hyp].[meL].V.R.I.[am]}$$$$V2.0): below 1000 nM; for `CCCCCCCC(=O)N1CCC[C@H](C(=O)N[C@@H](Cc2ccccc2)C(=O)N[C@H](CC(C)C)C(=O)N[C@@H](CC(C)C)C(=O)N2C[C@H](N)C[C@H]2C(=O)N(C)[C@@H](CC(C)C)C(=O)N[C@H](C(=O)N[C@@H](CCCNC(=N)N)C(=O)N[C@H](C(N)=O)[C@@H](C)CC)C(C)C)C1` [JAL-1401, Occ-Sni-Phe-leu-Leu-Tap-Nml-Val-Arg-Ile-NH2] (Octanoyl-[X2]F[dL]L[Pro(4R-NH2)][NMeL]VRI-NH2): below 1000 nM.
The value for `CCCCCCCC(=O)N1CCC[C@H](C(=O)N[C@@H](Cc2ccccc2)C(=O)N[C@H](CN(C)C)C(=O)N[C@@H](CC(C)C)C(=O)N2C[C@H](N)C[C@H]2C(=O)N(C)[C@@H](CC(C)C)C(=O)N[C@H](C(=O)N[C@@H](CCCNC(=N)N)C(=O)N[C@H](C(N)=O)[C@@H](C)CC)C(C)C)C1` [JAL-1403, Occ-Sni-Phe-dap(Me2)-Leu-Tap-Nml-Val-Arg-Ile-NH2] (Octanoyl-[X2]F[dDap(Me2)]L[Pro(4R-NH2)][NMeL]VRI-NH2) was below 1000 nM; that for `CCCCCCCCN1CCC[C@H](C(=O)N[C@@H](Cc2ccccc2)C(=O)N[C@H](CN(C)C)C(=O)N[C@@H](CC(C)C)C(=O)N2C[C@H](N)C[C@H]2C(=O)N(C)[C@@H](CC(C)C)C(=O)N[C@H](C(=O)N[C@@H](CCCNC(=N)N)C(=O)N[C@H](C(N)=O)[C@@H](C)CC)C(C)C)C1` [JAL-1405, Oct-Sni-Phe-dap(Me2)-Leu-Tap-Nml-Val-Arg-Ile-NH2] (X1-F[dDap(Me2)]L[Pro(4R-NH2)][NMeL]VRI-NH2) was below 1000 nM; that for `CCCCCCCC(=O)N[C@H](C)C(=O)N[C@@H](Cc1ccccc1)C(=O)N[C@H](CC(C)C)C(=O)N[C@@H](CC(C)C)C(=O)N1C[C@H](O)C[C@H]1C(=O)N(C)[C@@H](CC(C)C)C(=O)N[C@@H](CC(=O)O)C(=O)N[C@@H](CCCNC(=N)N)C(=O)NC(C)(CC(C)C)C(N)=O` (stereo partly drawn) [JAL-1414, Occ-ala-Phe-leu-Leu-Hyp-Nml-Asp-Arg-Aml-NH2] (HELM PEPTIDE1{[CCCCCCCC(=O)[*:2]].[dA].F.[dL].L.[Hyp].[meL].D.R.[CC(C)CC(C)(N[*:1])C(=O)[*:2]].[am]}$$$$V2.0) was below 1000 nM.
Regarding `CCCCCCCC(=O)N[C@H](C)C(=O)N[C@@H](Cc1ccccc1)C(=O)N[C@H](CC(C)C)C(=O)N[C@@H](CC(C)C)C(=O)N1C[C@H](O)C[C@H]1C(=O)N(C)[C@@H](CC(C)C)C(=O)N[C@@H](CC(=O)O)C(=O)N[C@@H](CCCNC(=N)N)C(=O)NC(CC)(CC)C(N)=O` [JAL-1416, Occ-ala-Phe-leu-Leu-Hyp-Nml-Asp-Arg-Deg-NH2] (HELM PEPTIDE1{[CCCCCCCC(=O)[*:2]].[dA].F.[dL].L.[Hyp].[meL].D.R.[CCC(CC)(N[*:1])C(=O)[*:2]].[am]}$$$$V2.0), the EC50 is below 1000 nM.
The same measure for `CCCCCCCC(=O)N[C@H](C)C(=O)N[C@@H](Cc1ccccc1)C(=O)N[C@H](CC(C)C)C(=O)N[C@@H](CC(C)C)C(=O)N1C[C@H](O)C[C@H]1C(=O)N(C)[C@@H](CC(C)C)C(=O)N[C@@H](CC(=O)O)C(=O)N(C)[C@@H](CCCNC(=N)N)C(=O)N[C@H](C(N)=O)[C@@H](C)CC` [JAL-1417, Occ-ala-Phe-leu-Leu-Hyp-Nml-Asp-Nmr-Ile-NH2] (HELM PEPTIDE1{[CCCCCCCC(=O)[*:2]].[dA].F.[dL].L.[Hyp].[meL].D.[meR].I.[am]}$$$$V2.0): below 1000 nM; for `CCCCCCCC(=O)N[C@H](C)C(=O)N[C@@H](Cc1ccccc1)C(=O)NC1(C(=O)N[C@@H](CC(C)C)C(=O)N2C[C@H](N)C[C@H]2C(=O)N(C)[C@@H](CC(C)C)C(=O)N[C@@H](CC(=O)O)C(=O)N2CCC[C@H]2C(=O)N[C@H](C(N)=O)[C@@H](C)CC)CCNCC1` [JAL-1452, Occ-ala-Phe-Apc-Leu-Tap-Nml-Asp-Pro-Ile-NH2] (Octanoyl-[dA]F[Api]L[Pro(4R-NH2)][NMeL]DPI-NH2): below 1000 nM.

(Values after US9822147B2, “Methods of treating ophthalmic diseases using NPR-B agonists” (priority 2009, dated 2017).)
